Melting point data for 86 compounds are collected here from a melting point compilation (Tetko et al.; mined from patent text by program, amines drawn as free bases though some values may be those of a salt).

Compound `C=C(c1cc(F)ccc1OCc1ccc(Cl)cc1Cl)n1ccnc1` displayed a melting point of 118 to 120 °C.
Regarding `Cc1cn(C2CC2)c(=O)nc1NS(=O)(=O)c1ccc(N)cc1`, the melting point fell in the range of 134 to 136 °C.
Then `COc1cccc2c(C#Cc3ccccc3)c3cccc(OC)c3c(C#Cc3ccccc3)c12`, with 178 to 180 °C; and `CC(C)C(NC(=O)Cn1cc(Cc2ccc(C(F)(F)F)cc2)cc(NC(=O)OCc2ccccc2)c1=O)C(=O)C(F)(F)F` (stereo unspecified), with 61 to 65 °C; and `CNCC(O)c1cn(C(c2ccccc2)(c2ccccc2)c2ccccc2)cn1` (stereo unspecified), with 169 to 171 °C.
Then `COCCNC(=O)C1=C(C(=O)Nc2cc(OC3CCCC3)c(Cl)cc2F)CCCC1`, with 151 °C; and `COC(=O)c1ccc(CN2CCOc3cc4c(cc32)C(C)(C)CCC4(C)C)cc1`, with 187 °C; and `COC(=O)N1CC[C@@H]2[C@H]1CCC[C@@]2(O)C#Cc1cccc(C)c1`, with 110 to 112 °C.
As for `Cc1ccc2nc(O)c(O)nc2c1`, the figure is above 300 °C.
`COC(=O)Cc1cc2ccc(OC)cc2n(Cc2ccccc2)c1=O`: the melting point was in the range of 118 to 120 °C.
As for `CCn1c2cc(C)ccc2c2ccc3ccccc3c21`, the figure is 104 to 105 °C.
As for `NC(=O)c1nn(-c2ccc(S(N)(=O)=O)cc2)c2c1CSc1ccccc1-2`, the figure is 211 to 213 °C; as for `CNC(=O)c1cccc(I)c1`, 94 to 97 °C; as for `Cc1cc(S(C)(=O)=O)ccc1C(=O)c1c(S(C)=O)noc1C1CC1` (stereo unspecified), 142 °C.
As for `CC(C)(C)c1cc(C(=O)c2ncco2)cc(C(C)(C)C)c1O`, the figure is 127 to 130 °C.
In turn, `O=C(NCCCCCC1CCSS1)c1cccnc1` (stereo unspecified) displayed a melting point of 41 to 44 °C.
In turn, `COc1ccc(-c2ccnc(-c3cn(C)c(=O)n3-c3ccc(C(C)(C)C#N)cc3)c2)cn1` registered a melting point of 187 °C.
As for `O=c1nc(-c2ccc(CO)cn2)sc2ccccc12`, the figure is 247 to 248 °C; as for `COc1ccc(CC2N(C)CCC(O)(c3ccccc3)C2(C)C)cc1` (stereo unspecified), 122 to 124 °C; as for `CN1CNC(=N[N+](=O)[O-])N(Cc2ccc(Cl)nc2)C1`, 150 to 154 °C.
As for `CCn1c(C(C#N)c2cc(C)cc(C#N)c2)c(C(C)C)c(=O)n(COC)c1=O` (stereo unspecified), the figure is 202 to 205 °C; as for `COc1ccc2ccccc2c1C(=O)/C=C/c1ncn(C(c2ccccc2)(c2ccccc2)c2ccccc2)c1C`, 220 to 222 °C; as for `CN1CCN2c3ccc([N+](=O)[O-])cc3C(c3cccs3)=NCC2C1` (stereo unspecified), 174 to 175 °C.
As for `CCc1c(C(F)(F)F)nn(-c2ccc(S(N)(=O)=O)nc2)c1-c1ccc(-c2cscn2)c(F)c1`, the figure is 182 to 185 °C.
Regarding `N#CC(C=N)CC(=O)c1ccc2ccccc2c1` (stereo unspecified), the melting point was in the range of 154 to 157 °C.
As for `C=C1CCC2C3CCc4cc(OC(C)=O)ccc4C3CCC12C` (stereo unspecified), the figure is 77 to 79 °C.
Then `OCCN1CCN(C2=Nc3cc(Br)ccc3Oc3cscc32)CC1`, with 150 to 152 °C; and `CN(CC1CO1)S(=O)(=O)C(F)(F)C(F)(F)C(F)(F)C(F)(F)S(=O)(=O)N(C)CC1CO1` (stereo unspecified), with 77 to 79 °C.
Then `CCN1CCCC1CNS(=O)(=O)c1ccc(Nc2ccnc3cc(Cl)ccc23)cc1` (stereo unspecified), with 200 to 202 °C; and `Cc1ccc(COc2cc(C(O)C#Cc3ccc(C(=O)O)cc3)cc3c2C(C)(C)CCC3(C)C)cc1` (stereo unspecified), with 219 °C.
For `CCN1C(=O)[C@@H](N)COc2ccccc21`, the melting point is 97 °C.
As to `Brc1ccc(N2CCNCC2)nc1`, the melting point was 70.6 °C.
In the case of `Cc1cc(C(F)(F)F)n2nc(S(=O)(=O)Nc3c(Cl)cccc3Cl)nc2n1`, the melting point is 237 to 239 °C.
Consider `COc1cc2ncnc(N3CCC(C(C)(O)CN4CCCS4(=O)=O)CC3)c2cc1OC` (stereo unspecified), for which the melting point lay within 173 to 174 °C.
As for `O=c1[nH]c(=O)c2cc(N3CCCCC3)ccc2[nH]1`, the figure is above 280 °C.
As for `COc1cc(C(=O)O)c(-c2c(C(=O)O)cc(OC)c3c2OCO3)c(OC)c1OC`, the figure is 258 to 259 °C; as for `NCCc1c2ccccc2n2c1[nH]c(=O)c1ccccc12`, above 300 °C.
Then `O=[N+]([O-])c1cc(F)c(N2CCCCC2)cc1Cl`, with 70 °C; and `Cc1c(Cl)c(OCC(=O)O)c(Cc2ccc3c(Cl)cccc3c2)c(O)c1C=O`, with 194 to 196 °C; and `CC12CCC(Oc3c(F)c(F)c(C(F)(F)F)c(F)c3F)=CC1=CCC1C2CCC2(C)C(c3cccnc3)=CCC12` (stereo unspecified), with 166 °C.
In turn, `CC(C)(C)NCC(O)COc1ccccc1C1=NNC(=O)CC1` (stereo unspecified) returned a melting point of 138 to 141 °C.
As for `CCCc1c(OCCOc2ccccc2C(=O)OC)ccc(C(C)=O)c1O`, the figure is 84 to 87 °C; as for `O=C(Nc1cccc(O)c1)NC1N=C(c2ccccc2F)c2ccccc2N(CC(=O)N2CC3CCC(CC3)C2)C1=O` (racemic), 184 to 185 °C; as for `Nc1ccc(C2=NNC(=O)Cc3cc4c(cc32)OCO4)cc1Cl`, 256 to 258 °C.
Consider `O=C1c2ccccc2CCC1CN1CCC(O)(c2ccc(Cl)cc2)CC1` (stereo unspecified), for which the melting point was in the range of 227 to 228 °C.
As for `CCC(=O)Oc1cccc(NC(=O)CBr)c1`, the figure is 85 to 88 °C; as for `CC1(C)C[C@@H](n2c(=O)c(Cl)nc3ccccc32)c2cc(C#N)ccc2O1`, 174 to 176 °C; as for `O=c1oc2ccc(-c3ccc(F)cc3F)cc2c(=O)n1-c1cc(F)ccc1F`, 144 to 145 °C.
Then `Cc1cccc(C)c1CNc1c(NC(C)(C)C)c(=O)c1=O`, with 265 to 267 °C; and `CSC1=CNSC1(C#N)SC` (stereo unspecified), with 63.5 to 64 °C.
`CC(Oc1ccc2nc(NC(=O)NCCN3CCOCC3)sc2c1)c1c(Cl)ccc(F)c1Cl` (stereo unspecified) yielded a melting point of 110 °C.
The compound `Cc1cc(I)cc(C=CC#N)c1` came in with a melting point of 98 °C.
As for `CCS(=O)(=O)CCC(=O)NNC(=O)N1Cc2ccccc2Oc2ccc(N)cc21`, the figure is 172 to 179 °C; as for `CS(=O)(=O)c1ccc(C=Cc2ccc(OCCO)cc2)cc1`, 224 to 226 °C.
`COc1ccc(NC(=O)c2cc(N)ccc2NC(=O)c2ccc(C(C)(C)C)cc2)cc1` showed a melting point of 212 to 214 °C.
As for `COc1cc2ncc(C#N)c(Nc3ccc(F)c(Cl)c3)c2cc1NC(=O)C=CCN1C(C)CCC1C` (stereo unspecified), the figure is 110 to 113 °C; as for `O=C(Cc1csc(-c2cnccn2)n1)NC1CCN(Cc2ccc(Cl)c(Cl)c2)CC1`, 186 to 189 °C.
As for `CNc1nc(-c2cccc(NC(=O)c3ccccc3)c2)c2cc(OCc3ccccc3)c(OC)cc2n1`, the figure is 204 to 206 °C; as for `CC(=O)N(C)CC(=O)c1ccc2c(c1)OCO2`, 99 to 101 °C.
As for `O=C(c1nnc(-c2ccccc2)o1)N1CC(Oc2ccc(CN3CC(C(F)F)C3)cc2)C1`, the figure is 147 °C; as for `CCOCCCOc1ccc(-c2ccc3c(c2)C=C(C(=O)OC)CCN3C(=O)OC(C)(C)C)cc1`, 125 to 128 °C; as for `CCn1ncc2c(C(F)(F)F)cc(=O)[nH]c21`, 178 to 179 °C.
For `Cc1ccc(C(O)c2c(OCc3ccccc3)c(=O)ccn2CCO)cc1` (stereo unspecified), the melting point lay within 206 to 207 °C.
`CCOc1ccc2nc(N3CCC(OC[C@H](C)NC(C)=O)CC3)sc2c1` displayed a melting point of 129 to 131 °C.
Turning to `CCOC(=O)CCNC(=O)c1cn2nc(NCCCN3CCC(OC(c4ccccc4)c4ccccc4)CC3)ccc2n1`, the melting point was 83 to 86 °C.
As for `Cc1nc(N2CCN(Cc3ccc(F)cc3)C2=O)sc1C(=O)NCc1ccc(F)cc1`, the figure is 177 to 178 °C; as for `O=S(=O)(c1ccc(Cl)cc1)C(c1ccncc1)c1cc(F)ccc1F` (stereo unspecified), 126 to 127 °C; as for `COC(=O)C(Cc1ccc(OCCc2nc(-c3ccccc3)oc2C)cc1)C(=O)NC(C)=O` (stereo unspecified), 126 to 128 °C.
As for `CCN1C(=O)CCCc2cc(Nc3ncc(Cl)c(Nc4ccccc4-n4cccn4)n3)c(OC)cc21`, the figure is 82 to 85 °C; as for `CC(=O)C(=Cc1cc(O)c(O)c([N+](=O)[O-])c1)c1ccccc1`, 170 to 176 °C; as for `CC(C)(C)c1ccc(C(=O)NN=Cc2c(O)ccc3ccccc23)cc1`, 259 to 261 °C.
Then `CC(C)(C)[Si](C)(C)CCCSCCNC(=O)n1cc(F)c(=O)[nH]c1=O`, with 123 to 124 °C; and `COC(=O)C[C@@H]1C[C@@H](COc2ccc(-c3ccc(C(=N)NC(=O)OCc4ccccc4)cc3)cc2)NC1=O`, with 160 to 164 °C; and `OCCCCCCCCCCCC(F)(F)C(F)(F)F`, with 41 to 43 °C.
The compound `Nc1c(Br)cc(OC(F)F)cc1[N+](=O)[O-]` showed a melting point of 60.5 to 61.5 °C.
As for `CCC(C(=O)c1ccc(C(C)C)c(OS(N)(=O)=O)c1C(C)C)c1ccccc1` (stereo unspecified), the figure is 142 to 145 °C.
As for `COC(=O)C(=Cc1cc(OC)cc(OC)c1)c1ccc(Oc2ccc(C=C3SC(=O)NC3=O)cc2)cc1`, the figure is 126 to 128 °C; as for `COc1cc2cc(/C=C/C#N)sc2cc1OC`, 154 to 158 °C; as for `Cc1cccc2c1-c1ccccc1C2CO` (stereo unspecified), 120 to 122 °C.
Then `CC12CC3(C)CC(c4ccc(C(=O)O)cc4)(C1)CC(c1ccc(C(=O)O)cc1)(C2)C3`, with 252 to 255 °C.
For the compound `Clc1ncc(CN2CC3(COc4cc5c(cc43)OCO5)c3ccccc32)s1` (stereo unspecified), the melting point was in the range of 195 to 198 °C.
`O=c1oc2cc(O)c(O)c([N+](=O)[O-])c2cc1-c1nnn[nH]1` registered a melting point above 315 °C.
Then `COc1cc(OC)cc(-c2nc[nH]c2-c2ccc(OC)c(O)c2F)c1`, with 126 to 128 °C; and `C[C@@H]1C[C@](C)(O)[C@H](C)N1c1ccc(C#N)c(F)c1`, with 125 to 128 °C; and `COc1cc(N)c(Cl)cc1C(=O)N[C@H]1CCN(CCNc2nccs2)C[C@H]1OC` (relative stereo), with 141 °C.
As for `O=C(C=Cc1ccc(NC(=O)c2ccccc2)cc1)NO`, the figure is 232 to 234 °C.
